SMILES strings stand for the structures.

The subject of the experiment is human liver cancer HepG2 subcutaneous xenograft. Kind of experiment: Human liver cancer HepG2 subcutaneous xenograft model. The experiment is classed as in vivo, BALB/c nude mice. To be noted: for relative tumor inhibition rate TGI (%): QW×3, tail vein, Day 45. The source says: BALB/c nude mice were subcutaneously inoculated with human liver cancer HepG2 cells to establish human liver cancer subcutaneous transplantation tumor model.

With `O=[N+]([O-])c1ccc([C@@H](OP(=O)(N2CC2)N2CC2)C(F)(F)F)c2ccccc12` (single isomer, unassigned) [Compound C], the cure rate runs as follows: (20 mg/kg (Group 5)) 20%; (40 mg/kg (Group 6)) 20%. Also, the “relative tumor inhibition rate TGI (%)” value amounted to 33.10% (20 mg/kg) and 75.59% (40 mg/kg).

For the origin of these results see patent US20230339991A1, “HYPOXIA-ACTIVATED DNA ALKYLATING AGENT AND MEDICAL USE THEREOF” (ASCENTAWITS PHARMACEUTICALS, LTD., priority 2020, published 2023).
